≈ marks a conversion by molar mass, not a printed value. Read-outs that look alike come from different tables or passages of the source.
Tests used:
S. aureus ATCC 13709 = test: MIC, S. aureus ATCC 13709; assay type: cell-based; conditions: for SA MIC: Table 13, L = NH; for MIC: Staphylococcus aureus
E. coli ATCC 25922 = test: MIC, E. coli ATCC 25922; assay type: cell-based; conditions: for EC MIC: Table 13, L = NH; for MIC: Escherichia coli
[1] = S. aureus, Alamar Blue read after overnight incubation at 35° C.
[2] = E. coli, Alamar Blue read after overnight incubation at 35° C.
[3] = ATCC13709, S. aureus, Alamar Blue read after overnight incubation at 35° C., read-out: MIC Sa
[4] = ATCC25922, E. coli, Alamar Blue read after overnight incubation at 35° C., read-out: MIC Ec

Compound	MIC Sa (S. aureus ATCC 13709; [1])	MIC Ec (E. coli ATCC 25922; [2])	MIC (S. aureus ATCC 13709; [3])	MIC (E. coli ATCC 25922; [4])	other results
CNc1cc(F)cc2c1[nH]c1nc(Oc3cnc(C)nc3)nc(N3CCC(N)C(C)(C)C3)c12 (centres unmarked) [Compound 4.152]	≤0.5 µg/mL	1 µg/mL (≈ 2.22 µM)	–	–	–
CNc1cc(F)cc2c1[nH]c1nc(Oc3cnc4c(c3)OCCO4)nc(N3CC4CC(N)C4C3)c12 (centres unmarked) [Compound 4.294]	≤0.5 µg/mL	1 µg/mL (≈ 2.09 µM)	–	–	–
CNc1cc(F)cc2c1[nH]c1nc(Oc3cnc4cc[s+]([O-])c4c3)nc(N3C[C@H]4C[C@@H]3C[C@H]4N)c12 (some centres unmarked) [Compound 10.109]	–	–	–	–	MIC Sa (S. aureus ATCC 13709; Table 18, Sa): ≤ 0.5 µg/mL; MIC Ec (E. coli ATCC 25922; Table 18, Ec): ≤ 0.5 µg/mL
CNc1cc(F)cc2c1[nH]c1nc(Nc3cnc4nccnc4c3)nc(N3C[C@H]4CC3C[C@H]4N)c12	–	–	–	–	SA MIC (S. aureus ATCC 13709): ≤ 0.5 µg/mL; EC MIC (E. coli ATCC 25922): 16 µg/mL
CNc1cc(F)cc2c1[nH]c1nc(Oc3cncc(OC)c3)nc(N3CC4CC(N)C4C3)c12 (centres unmarked) [Compound 4.167]	≤0.5 µg/mL	≤0.5 µg/mL	–	–	–
CNc1cc(F)cc2c1[nH]c1nc(Oc3cnc(C(C)O)nc3)nc(N(C)C)c12 (centres unmarked) [Compound 10.101]	–	–	–	–	MIC Sa (S. aureus ATCC 13709; Table 18, Sa): ≤ 0.5 µg/mL; MIC Ec (E. coli ATCC 25922; Table 18, Ec): ≤ 0.5 µg/mL
CNc1cc(F)c(F)c2c1[nH]c1nc(Oc3ncc(C)cn3)nc(N3CC(N)C3)c12 [Compound 5.06]	≤0.5 µg/mL	≤0.5 µg/mL	–	–	–
CNc1cccc2c1[nH]c1nc(Sc3cnc4cccnc4c3)nc(N3CCCCC(N)C3)c12 (centres unmarked) [Compound 1.45]	–	–	1 µg/mL (≈ 2.12 µM)	4 µg/mL (≈ 8.5 µM)	–
CNc1cccc2c1[nH]c1nc(Oc3cncc(C(=O)O)c3)cc(N3CC4C(N)C4C3)c12 (centres unmarked) [Compound 3.20]	–	–	> 8 µg/mL	> 8 µg/mL	–
CNc1cccc2c1[nH]c1nc(Oc3cncnc3)cc(N3CCC(N)CC3)c12 [Compound 3.64]	–	–	16 µg/mL (≈ 41.1 µM)	64 µg/mL (≈ 164 µM)	–
CNc1cccc2c1[nH]c1nc(Oc3cnc(C)nc3)cc(N3CC4C(C3)C4NCCC#N)c12 (centres unmarked) [Compound 3.11]	–	–	≤ 0.5 µg/mL	2 µg/mL (≈ 4.4 µM)	–
CNc1cc(F)cc2c1[nH]c1nc(Oc3ccc(C(C)=O)nc3)nc(N3CC4CCNC4C3)c12 (centres unmarked) [Compound 4.309]	≤0.5 µg/mL	≤0.5 µg/mL	–	–	–
CNc1cc(F)cc2c1[nH]c1nc(Oc3cnc4c(c3)C(=O)N(C)C4C)nc(N3CC4(CC[C@H]4N)C3)c12 (some centres unmarked) [Compound 10.83]	–	–	–	–	MIC Sa (S. aureus ATCC 13709; Table 18, Sa): ≤ 0.5 µg/mL; MIC Ec (E. coli ATCC 25922; Table 18, Ec): 1 µg/mL (≈ 1.99 µM)
CNc1ncnc2c1[nH]c1nc(Oc3cncnc3)nc(Oc3cncnc3)c12 [Compound 7.10]	–	–	> 64 µg/mL	> 64 µg/mL	–
CNc1cccc2c1[nH]c1nc(Sc3cnc4cccnc4c3)nc(N3CC(N)C3)c12 [Compound 1.29]	–	–	1 µg/mL (≈ 2.33 µM)	> 64 µg/mL	–
CNc1cc(F)c(F)c2c1[nH]c1nc(Oc3cnc(C)nc3)nc(N3CCC(S(N)(=O)=O)C3)c12 (centres unmarked) [Compound 10.106]	–	–	–	–	MIC Sa (S. aureus ATCC 13709; Table 18, Sa): ≤ 0.5 µg/mL; MIC Ec (E. coli ATCC 25922; Table 18, Ec): 2 µg/mL (≈ 4.08 µM)
CNc1cc(F)cc2c1[nH]c1nc(Oc3cnc(C4CC4)nc3)nc(N3CC4C(CN)C4C3)c12 (centres unmarked) [Compound 4.249]	≤0.5 µg/mL	≤0.5 µg/mL	–	–	–
CNc1cc(F)cc2c1[nH]c1nc(Oc3cnc4c(C)cnn4c3)nc(N3CC4C(N)C4C3)c12 (centres unmarked) [Compound 10.40]	–	–	–	–	MIC Sa (S. aureus ATCC 13709; Table 18, Sa): ≤ 0.5 µg/mL; MIC Ec (E. coli ATCC 25922; Table 18, Ec): ≤ 0.5 µg/mL
CNc1cc(F)cc2c1[nH]c1nc(Oc3cnc(C)nc3)nc(N3CC4CCNC4(C)C3)c12 (centres unmarked) [Compound 4.116]	≤0.5 µg/mL	≤0.5 µg/mL	–	–	–
CNc1cc(F)cc2c1[nH]c1nc(Nc3cnc4ccnn4c3)nc(N3C[C@H]4C[C@@H]3C[C@H]4N)c12 [Compound 10.45]	–	–	–	–	MIC Sa (S. aureus ATCC 13709; Table 18, Sa): ≤ 0.5 µg/mL; MIC Ec (E. coli ATCC 25922; Table 18, Ec): ≤ 0.5 µg/mL
CNc1cccc2c1[nH]c1nc(Sc3cnc4cccnc4c3)nc(N3CCN(C(C)=O)CC3)c12 [Compound 1.67]	–	–	≤ 0.5 µg/mL	> 64 µg/mL	–
CNc1cc(F)cc2c1[nH]c1nc(Oc3cnc4cc[s+]([O-])c4c3)nc(N3CC4(CC[C@H]4N)C3)c12 (some centres unmarked) [Compound 10.111]	–	–	–	–	MIC Sa (S. aureus ATCC 13709; Table 18, Sa): ≤ 0.5 µg/mL; MIC Ec (E. coli ATCC 25922; Table 18, Ec): ≤ 0.5 µg/mL
CNc1cc(F)cc2c1[nH]c1nc(Oc3cncc(-c4nnnn4C)c3)nc(N3CC4C(N)C4C3)c12 (centres unmarked) [Compound 4.168]	≤0.5 µg/mL	2 µg/mL (≈ 4.1 µM)	–	–	–
CNc1cc(F)cc2c1[nH]c1nc(Nc3cnc4ccnn4c3)nc(N3C[C@H]4CC3C[C@H]4N)c12	–	–	–	–	SA MIC (S. aureus ATCC 13709): ≤ 0.5 µg/mL; EC MIC (E. coli ATCC 25922): ≤ 0.5 µg/mL
CNc1cccc2c1[nH]c1nc(Sc3cnc4ccc[n+]([O-])c4c3)nc(N3CC(CNC(=O)c4cn(C)nc4C(F)(F)F)C3)c12 [Compound 1.21]	–	–	≤ 0.5 µg/mL	> 64 µg/mL	–

Compound	MIC Sa (S. aureus ATCC 13709; [1])	MIC Ec (E. coli ATCC 25922; [2])	MIC (S. aureus ATCC 13709; [3])	MIC (E. coli ATCC 25922; [4])	other results
CNc1cc(F)cc2c1[nH]c1nc3nc(c12)NCCCCCCNC(=O)CSc1ncc(cn1)O3	–	–	–	–	MIC (S. aureus ATCC 13709; ATCC13709, Table 15, R2 is joined to R4, read-out: SA MIC): ≤ 0.5 µg/mL; MIC (E. coli ATCC 25922; ATCC25922, Table 15, R2 is joined to R4, EC8 not defined, read-out: EC8 MIC): > 16 µg/mL
CNc1cc(F)cc2c1[nH]c1nc(Oc3cnc4[nH]cnc4c3)nc(N3CC4CC(N)C4C3)c12 (centres unmarked) [Compound 4.310]	8 µg/mL (≈ 17.4 µM)	>16 µg/mL	–	–	–
CNc1cccc2c1[nH]c1nc(Oc3cncnc3)cc(N3CC(N)C(O)C3)c12 (centres unmarked) [Compound 3.8]	–	–	16 µg/mL (≈ 40.9 µM)	> 64 µg/mL	–
CNc1cc(F)c(F)c2c1[nH]c1nc(Oc3cnc4c(C)cnn4c3)nc(N3C[C@H]4C[C@@H]3C[C@H]4N)c12 [Compound 10.26]	–	–	–	–	MIC Sa (S. aureus ATCC 13709; Table 18, Sa): ≤ 0.5 µg/mL; MIC Ec (E. coli ATCC 25922; Table 18, Ec): ≤ 0.5 µg/mL
CNc1cccc2c1[nH]c1nc(Oc3cncnc3)cc(N3CC4CCC(N)C4C3)c12 (centres unmarked) [Compound 3.15]	–	–	1 µg/mL (≈ 2.41 µM)	8 µg/mL (≈ 19.3 µM)	–
CNc1cc(F)cc2c1[nH]c1nc(Oc3cnc(N)nc3)nc(N3C4CCC3CC(N)C4)c12 (centres unmarked) [Compound 4.183]	1 µg/mL (≈ 2.22 µM)	8 µg/mL (≈ 17.8 µM)	–	–	–
CNc1ncnc2c1[nH]c1nc(Oc3cncc(F)c3)nc(N3CC4C(N)C4C3)c12 (centres unmarked) [Compound 7.04]	–	–	8 µg/mL (≈ 19.6 µM)	32 µg/mL (≈ 78.5 µM)	–
COc1cccc2c1[nH]c1nc(Sc3cnc4nccnc4c3)nc(N3CC4C(N)C4C3)c12 (centres unmarked) [Compound 1.76]	–	–	1 µg/mL (≈ 2.19 µM)	> 64 µg/mL	–
CNc1cc(F)cc2c1[nH]c1nc(Oc3cnc(C)nc3)nc(N3CC4CCNC4C3)c12 (centres unmarked) [Compound 4.156]	≤0.5 µg/mL	≤0.5 µg/mL	–	–	–
CNc1cccc2c1[nH]c1nc(Oc3ccc(C(=O)OC)nc3)cc(N3CC4C(N)C4C3)c12 (centres unmarked) [Compound 3.21]	–	–	≤ 0.5 µg/mL	1 µg/mL (≈ 2.25 µM)	–
CNc1cc(F)c(F)c2c1[nH]c1nc(Oc3ncc(C)cn3)nc(N3CC4C(N)C4C3)c12 (centres unmarked) [Compound 5.04]	≤0.5 µg/mL	≤0.5 µg/mL	–	–	–
CNc1cccc2c1[nH]c1nc(Oc3cncc(F)c3)cc(N3CC4CNC4C3)c12 (centres unmarked) [Compound 3.7]	–	–	1 µg/mL (≈ 2.47 µM)	4 µg/mL (≈ 9.89 µM)	–
CNc1cc(F)cc2c1[nH]c1nc(Oc3cncnc3)nc(N3CC4C(CN)C4C3)c12 (centres unmarked) [Compound 4.004]	≤0.5 µg/mL	2 µg/mL (≈ 4.76 µM)	–	–	–
CNc1cc(F)cc2c1[nH]c1nc(Oc3cnc(C)nc3)nc(N3CCC4(CCC4N)CC3)c12 (centres unmarked) [Compound 4.139]	≤0.5 µg/mL	≤0.5 µg/mL	–	–	–
NC1C2CN(c3nc(Sc4cnc5ccc[n+]([O-])c5c4)nc4[nH]c5c(Cl)cccc5c34)CC12 (centres unmarked) [Compound 1.03]	32 µg/mL (≈ 67.2 µM)	>64 µg/mL	–	–	–
CNc1cc(F)c(F)c2c1[nH]c1nc(Oc3cnc4c(c3)ncn4C3CC3)nc(N3C[C@H]4C[C@@H]3C[C@H]4N)c12 [Compound 5.15]	–	–	≤ 0.5 µg/mL	1 µg/mL (≈ 1.93 µM)	–
CNc1cc(F)cc2c1[nH]c1nc(Oc3cnc(C)nc3)nc(N3CC4CC(N)C3C4)c12 (centres unmarked) [Compound 4.148]	≤0.5 µg/mL	4 µg/mL (≈ 9.21 µM)	–	–	–
CNc1cccc2c1[nH]c1nc(Sc3cnc4ccc[n+]([O-])c4c3)nc(N3CC4CC3CN4)c12 (centres unmarked) [Compound 1.57]	–	–	> 32 µg/mL	> 32 µg/mL	–
CNc1cc(F)cc2c1[nH]c1nc(Oc3cnc(C)nc3)nc(N3CC(N)C3)c12 [Compound 4.138]	≤0.5 µg/mL	≤0.5 µg/mL	–	–	–
CNc1cc(F)cc2c1[nH]c1nc(Oc3cnc(C)nc3)nc(N3CCC(N)(CN)C3)c12 (centres unmarked)	–	–	–	–	MIC (S. aureus ATCC 13709; ATCC13709, Table 16, new R4 substituents, read-out: SA MIC): ≤ 0.5 µg/mL; MIC (E. coli ATCC 25922; ATCC25922, Table 16, new R4 substituents, EC8 not defined, read-out: EC8 MIC): 16 µg/mL (≈ 36.6 µM)
CNc1cc(F)cc2c1[nH]c1nc(Oc3ccc4ccnn4c3)nc(N3C[C@H]4CCN[C@H]4C3)c12 [Compound 10.52]	–	–	–	–	MIC Sa (S. aureus ATCC 13709; Table 18, Sa): ≤ 0.5 µg/mL; MIC Ec (E. coli ATCC 25922; Table 18, Ec): ≤ 0.5 µg/mL
CNc1cc(F)c(F)c2c1[nH]c1nc(Oc3cnc(CO)nc3)nc(N3C[C@H]4C[C@@H]3C[C@H]4N)c12 [Compound 5.14]	–	–	≤ 0.5 µg/mL	≤ 0.5 µg/mL	–
CNc1cc(Cl)cc2c1[nH]c1nc(Oc3cnc(C(C)O)nc3)nc(N3C[C@H]4C[C@@H]3C[C@H]4N)c12 (some centres unmarked) [Compound 10.33]	–	–	–	–	MIC Sa (S. aureus ATCC 13709; Table 18, Sa): ≤ 0.5 µg/mL; MIC Ec (E. coli ATCC 25922; Table 18, Ec): ≤ 0.5 µg/mL
CNc1cccc2c1[nH]c1nc(Sc3cnc4ccc[n+]([O-])c4c3)nc(N3CC(C4(N)CC4)C3)c12 [Compound 1.33]	–	–	≤ 0.5 µg/mL	4 µg/mL (≈ 8.25 µM)	–
